Laboratory results taken from US11578042B2, “3,5-diamino-6-chloro-N-(N-(4-(4-(2-(hexyl(2,3,4,5,6-pentahydroxyhexyl)amino)ethoxy)phenyl)butyl)carbamimidoyl)pyrazine-2-carboxamide” (Parion Sciences, Inc., priority 2011, dated 2023).
Values joined by “and” are separate entries in the source; they are usually repeats but may differ in a detail not shown here. Equal values may be shown once. “Also recorded” adds a separate entry of the source.

Tests used:
[1] = Human plasma metabolism; format: in vitro ADME; details: read-out: Human Plasma Metabolism (t½)
[2] = Plasma potassium levels in sheep of the MCC study; details: at effective / approximate ED50 doses
Method: In these studies, adult sheep were restrained and nasally intubated with an endotracheal tube. Aerosolized test articles were administered over 10^−15 minutes to sheep. Radiolabeled ^99mTc-sulfur colloid (TSC, 3.1 mg/mL; containing approximately 20 mCi) was then administered at a specified time four or eight hours after test article. The radiolabeled aerosol was administered through the endotracheal tube for about 5 minutes. The sheep were then extubated, and total radioactive counts in the lung were measured every 5 minutes for a 1-hour observation period. The rate of radiolabel clearance from the lung is representative of the MCC rate in the animal. […] The model also allows for the collection of simultaneous PK/PD information through plasma and urine sampling over the test period.

[3] = tested on: HBE cells; assay: Airway surface liquid drug clearance and metabolism by human airway epithelium; details: 25 μL of 25 μM on apical surface of HBE, 37° C.
Text: Assay 3. d. Airway Surface Liquid Drug (ASL) Clearance and Metabolism by Human Airway Epithelium

[4] = Log D; format: physicochemical
[5] = Human plasma protein binding; format: in vitro ADME
[6] = tested on: mucociliary clearance (MCC); assay: Mucociliary clearance (MCC) studies in sheep; format: in vivo; details: for AUC / Initial Slope (4.0-4.5 h): Table 10, 4 mL, 4 h post-dose
Method: Assay 2. Mucociliary Clearance (MCC) Studies in Sheep
The animal model that has been used most often to measure changes in MCC is the sheep model.
In these studies, adult sheep were restrained and nasally intubated with an endotracheal tube. Aerosolized test articles were administered over 10^−15 minutes to sheep. Radiolabeled ^99mTc-sulfur colloid (TSC, 3.1 mg/mL; containing approximately 20 mCi) was then administered at a specified time four or eight hours after test article. The radiolabeled aerosol was administered through the endotracheal tube for about 5 minutes. The sheep were then extubated, and total radioactive counts in the lung were measured every 5 minutes for a 1-hour observation period. The rate of radiolabel clearance from the lung is representative of the MCC rate in the animal. The advantage of this system is that it closely simulates the human lung environment. The model also allows for the collection of simultaneous PK/PD information through plasma and urine sampling over the test period. There are also several techniques to measure the drug concentrations on the airway surface during the MCC measurements. These include the collection of exhaled breath condensates or a filter paper method to obtain ASL via bronchoscopy.
Test solutions were aerosolized using a Raindrop nebulizer at a flowrate of eight liters per minute and connected to a dosimetry system consisting of a solenoid valve and a source of compressed air (20 psi). […] Using a Raindrop nebulizer, radiolabeled TSC was administered over approximately 3 minutes either 4 or 8 hours after drug treatment to evaluate efficacy/durability. Radioactive counts were measured in a central region in the right lung at 5 min intervals for one hour with a gamma camera.

[7] = sheep, in vivo, iv
[8] = tested on: CBE cells; assay: Airway hydration / surface liquid retention (in vitro CBE model); format: cell-based, canine; details: 10 μM, 50 μL applied apically, 8 hours
Method: Primary CBE cells are plated onto collagen-coated, porous membranes maintained at an air-liquid interface to assess maintenance of surface liquid volume over time. At the start of the experiment, each 12 mm snapwell insert was removed from the plate containing air-liquid interface culture media, blotted dry, weighed, and 50 μL of vehicle (0.1% DMSO), or ENaC blocker (10 μM in 0.1% DMSO) applied to the apical surface and the mass was recorded. The inserts were immediately returned to a transwell plate (500 μL, Krebs Ringer Bicarbonate (KRB), pH 7.4 in lower chamber) and placed in a 37° C., 5% CO2 incubator. To reduce artifact due to an apical carbohydrate osmotic gradient upon water loss, glucose was not included in the apical buffer. […] The mass of surface liquid was converted to volume in μL. Data are reported as % initial volume (100%=50 μL).
The duration of sodium transport inhibition was determined indirectly by measuring the buffer retained after a 50 μl volume of experimental buffer was added to the apical surface of CBE cells.

[9] = sheep MCC model, given as concentration

Question: What does the source list for `N=C(NCCCCc1ccc(OC[C@H](N)C(N)=O)cc1)NC(=O)c1nc(Cl)c(N)nc1N` [Comparative Example 4, (S)-3,5-diamino-6-chloro-N-(N-(4-(4-(2,3-diamino-3-oxopropoxy)phenyl)butyl)carbamimidoyl)pyrazine-2-carboxamide]?
Answer: half-life [1]: 37 min; effect on plasma potassium [2]: has elevations of plasma K; also recorded: significant increase in plasma potassium levels; % of Apical Mass as Metabolites (2 h) [3]: 83% and 83.0 ± 3.5%; % on Basolateral Side as Metabolites (2 h) [3]: 94.7 ± 1.0%; logD [4]: 0.64; fraction unbound [5]: 0.24; AUC ([6]; 11.2 μg/kg): 6.9 ± 1.0 % CI × h; Initial Slope (4.0-4.5 h) ([6]; 11.2 μg/kg): 14.5 ± 1.3; AUC ([6]; 112 μg/kg): 14.1 ± 2.2 % CI × h; Initial Slope (4.0-4.5 h) ([6]; 112 μg/kg): 32.2 ± 7.3; approximate ED50 dose [6, 9]: ~3000 µM

Question: Which “effect on plasma potassium” value [2] does the source give for `N=C(NCCCCc1ccc(OCCN(C[C@H](O)[C@@H](O)[C@H](O)[C@H](O)CO)C[C@H](O)[C@@H](O)[C@H](O)[C@H](O)CO)cc1)NC(=O)c1nc(Cl)c(N)nc1N` [Comparative Example 1] here?
Answer: The value was “causes a rise in plasma potassium”.

Question: And the “dose recovered in urine” value [7]?
Answer: The value was 43%.

Question: What about the ED50 ([6]; Ovis aries, sheep MCC at 8 hrs, read-out: Approximate ED50) of the same compound?
Answer: The ED50 was roughly 0.24 µmol/kg.

Question: What about the “AUC, % of maximal effect” value ([6]; Table 7, 3000 μM, 8 hrs) of the same compound?
Answer: Its value is “(47%)”.

Question: And the “AUC, change from vehicle” value ([6]; Table 7, 3000 μM, 8 hrs)?
Answer: Its value is 2.9 % CI*h.

Question: What about the “Max Clearance, % of maximal effect” value ([6]; Table 7, 3000 μM, 8 hrs) of the same compound?
Answer: The value was “(31%)”.

Question: And the “Max Clearance, change from vehicle” value ([6]; Table 7, 3000 μM, 8 hrs)?
Answer: Its value is 4%.

Question: And the “Slope (8-8.5 h), % of maximal effect” value ([6]; Table 7, 3000 μM, 8 hrs)?
Answer: Its value is “(60%)”.

Question: What about the “Slope (8-8.5 h), change from vehicle” value ([6]; Table 7, 3000 μM, 8 hrs) of the same compound?
Answer: Its value is 6.1.

Question: And the “Approximate ED50” value ([6]; sheep MCC at 8 hrs, listed as Comp. Ex. 1)?
Answer: Its value is roughly 240 nmol/kg.

Question: What about the “ED50 (AUC=47%)” value [6, 9] of the same compound?
Answer: The value was “approximately 3000 μM”.

Question: And the “approximate ED50 dose” value [6, 9]?
Answer: The value was roughly 3000 µM.

Question: For `N=C(N)NC(=O)c1nc(Cl)c(N)nc1N` [Amiloride, amiloride], which “surface liquid retained (% initial volume)” value [8] is on record?
Answer: The value was 25±19.2%.
